The record followed here is ChEMBL document CHEMBL5233239, “Matrix metalloproteinase-9 (MMP-9) and its inhibitors in cancer: A minireview” (Eur J Med Chem, 2020).

In assay [1] the target is T1, Matrix metalloproteinase-9 (Homo sapiens, UniProt P14780). Briefly: Inhibition of MMP-9 (unknown origin).
The target in assay [2] is T1, Matrix metalloproteinase-9. Briefly: Inhibition of recombinant human MMP9 using […] as substrate incubated for 20 to 30 mins by fluorescence microplate reader analysis.
For assay [3], the target named is T2, Interstitial collagenase (Homo sapiens, UniProt P03956).
T2 sequence (P03956 whole entry): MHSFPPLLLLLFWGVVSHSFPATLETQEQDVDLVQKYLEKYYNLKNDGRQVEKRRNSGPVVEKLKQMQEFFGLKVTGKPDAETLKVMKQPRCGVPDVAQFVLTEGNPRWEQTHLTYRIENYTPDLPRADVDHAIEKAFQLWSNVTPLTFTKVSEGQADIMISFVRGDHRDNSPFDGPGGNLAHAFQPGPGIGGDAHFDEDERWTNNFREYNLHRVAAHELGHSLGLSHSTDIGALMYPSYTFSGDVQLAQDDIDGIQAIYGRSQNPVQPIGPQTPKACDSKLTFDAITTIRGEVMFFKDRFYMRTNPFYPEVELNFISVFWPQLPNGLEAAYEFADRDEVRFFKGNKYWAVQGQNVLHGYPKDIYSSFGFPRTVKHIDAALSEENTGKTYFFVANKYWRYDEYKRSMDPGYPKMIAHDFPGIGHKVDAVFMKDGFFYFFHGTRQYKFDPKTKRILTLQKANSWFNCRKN
Briefly: Inhibition of recombinant human MMP1 expressed in Escherichia coli BL21 (DE3) using Mca-Pro-Leu-Gly-Leu-Dpa-Ala-Arg-NH2 as substrate incubated for 20 to 30 mins by fluorescence assay.

A further assay concerns the target T3, Matrilysin (Homo sapiens, UniProt P09237).
T3 sequence (P09237 whole entry): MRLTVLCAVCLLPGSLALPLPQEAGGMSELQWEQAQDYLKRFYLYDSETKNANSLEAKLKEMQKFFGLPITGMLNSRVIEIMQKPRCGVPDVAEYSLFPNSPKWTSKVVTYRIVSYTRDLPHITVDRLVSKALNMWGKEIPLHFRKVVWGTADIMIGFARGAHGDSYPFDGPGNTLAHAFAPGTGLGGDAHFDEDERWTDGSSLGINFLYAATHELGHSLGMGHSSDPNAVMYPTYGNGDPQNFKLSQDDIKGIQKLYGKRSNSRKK
Briefly: Inhibition of recombinant human MMP7 using […] as substrate incubated for 20 to 30 mins by fluorescence microplate reader analysis.

Assay [4] deals with T4, Stromelysin-1 (Homo sapiens, UniProt P08254). Description: Inhibition of recombinant human MMP3 expressed in Escherichia coli BL21 (DE3) using [3H]transferrin as substrate incubated for 3 hrs by scintillation counter analysis.
Target sequence in this assay (P08254 whole entry): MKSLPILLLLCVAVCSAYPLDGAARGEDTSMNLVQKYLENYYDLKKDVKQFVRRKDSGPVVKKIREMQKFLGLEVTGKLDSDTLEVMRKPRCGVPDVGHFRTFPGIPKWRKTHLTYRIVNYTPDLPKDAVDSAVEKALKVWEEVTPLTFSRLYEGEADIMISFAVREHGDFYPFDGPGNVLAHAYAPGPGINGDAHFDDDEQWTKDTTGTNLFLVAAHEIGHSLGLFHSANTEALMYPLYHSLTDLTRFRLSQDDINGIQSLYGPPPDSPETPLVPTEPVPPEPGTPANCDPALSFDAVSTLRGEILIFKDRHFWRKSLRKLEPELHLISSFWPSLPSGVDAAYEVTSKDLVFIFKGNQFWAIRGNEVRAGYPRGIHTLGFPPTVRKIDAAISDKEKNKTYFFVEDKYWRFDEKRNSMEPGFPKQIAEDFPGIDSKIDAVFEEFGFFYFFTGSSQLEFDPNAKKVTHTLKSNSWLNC
The target in assay [5] is T5, Collagenase 3 (Homo sapiens, UniProt P45452). Description: Inhibition of recombinant human MMP13 using […] as substrate incubated for 20 to 30 mins by fluorescence microplate reader analysis.
The target of assay [6] is T5, Collagenase 3.
Description: Inhibition of MMP-13 (unknown origin)
Assay [7] concerns the target T6, Neutrophil collagenase (Homo sapiens, UniProt P22894). Description: Inhibition of recombinant human MMP8 using […] as substrate incubated for 20 to 30 mins by fluorescence microplate reader analysis.
Target sequence in this assay (P22894 whole entry): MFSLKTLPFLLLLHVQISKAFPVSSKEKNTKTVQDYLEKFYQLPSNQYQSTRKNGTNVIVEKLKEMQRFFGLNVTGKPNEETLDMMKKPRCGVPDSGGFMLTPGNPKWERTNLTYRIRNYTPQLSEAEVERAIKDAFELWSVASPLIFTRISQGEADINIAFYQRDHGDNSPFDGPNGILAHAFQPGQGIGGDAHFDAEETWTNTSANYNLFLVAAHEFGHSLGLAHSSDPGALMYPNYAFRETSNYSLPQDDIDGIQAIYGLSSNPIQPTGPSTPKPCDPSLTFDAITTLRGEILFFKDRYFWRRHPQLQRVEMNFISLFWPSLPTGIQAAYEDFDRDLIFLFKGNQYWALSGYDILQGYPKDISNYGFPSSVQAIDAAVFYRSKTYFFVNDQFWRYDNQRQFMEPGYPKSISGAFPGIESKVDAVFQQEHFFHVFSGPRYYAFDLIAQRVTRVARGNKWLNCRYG
Assay [8] has as its target T7, 72 kDa type IV collagenase (Homo sapiens, UniProt P08253). Description: Inhibition of recombinant human full length MMP2 using […] as substrate incubated for 20 to 30 mins by fluorescence microplate reader analysis.
Target sequence in this assay (P08253 whole entry, the tested form may be a part): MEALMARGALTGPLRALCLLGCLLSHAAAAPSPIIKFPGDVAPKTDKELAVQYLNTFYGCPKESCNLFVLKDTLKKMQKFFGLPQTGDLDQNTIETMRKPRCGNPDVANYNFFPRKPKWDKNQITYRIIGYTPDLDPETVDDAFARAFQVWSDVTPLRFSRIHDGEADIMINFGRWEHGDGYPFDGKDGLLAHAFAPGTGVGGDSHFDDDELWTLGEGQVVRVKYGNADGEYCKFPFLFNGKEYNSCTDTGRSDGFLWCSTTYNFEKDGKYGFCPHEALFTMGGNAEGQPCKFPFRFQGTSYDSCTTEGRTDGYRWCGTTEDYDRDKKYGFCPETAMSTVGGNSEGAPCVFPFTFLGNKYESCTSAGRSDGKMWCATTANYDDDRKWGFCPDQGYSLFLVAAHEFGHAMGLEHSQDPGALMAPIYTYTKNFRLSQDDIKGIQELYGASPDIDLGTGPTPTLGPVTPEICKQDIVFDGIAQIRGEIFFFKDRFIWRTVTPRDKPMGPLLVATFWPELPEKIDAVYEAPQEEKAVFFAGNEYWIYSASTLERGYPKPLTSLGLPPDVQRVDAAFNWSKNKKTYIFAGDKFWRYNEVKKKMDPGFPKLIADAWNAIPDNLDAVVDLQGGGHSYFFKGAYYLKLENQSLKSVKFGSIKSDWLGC
Assay [9] has as its target Disintegrin and metalloproteinase domain-containing protein 17 (Homo sapiens, UniProt P78536). Briefly: Inhibition of TACE (unknown origin).
Assay [10] concerns the target T2, Interstitial collagenase. Description: Inhibition of MMP-1 (unknown origin).
The target in assay [11] is T4, Stromelysin-1. Description: Inhibition of human MMP3 using (7-methoxycoumarine-4-yl)-Arg-Pro-Lys-Pro-Tyr-Ala-Nva-Trp-Met-Lys(Dnp)-NH2 substrate by fluorimetric analysis.
Target sequence in this assay (P08254 whole entry): as the sequence (P08254 whole entry) above
Assay [12] deals with T1, Matrix metalloproteinase-9. Briefly: Inhibition of human MMP9 using Dnp-Pro-Cha-Gly-Cys(Me)-His-Ala-Lys(Nma)-NH2 substrate by fluorimetric analysis.
The target of assay [13] is T5, Collagenase 3. Description: Inhibition of human MMP13 using Dnp-Pro-Cha-Gly-Cys(Me)-His-Ala-Lys(Nma)-NH2 substrate by fluorimetric analysis.
The target in assay [14] is T7, 72 kDa type IV collagenase. Description: Inhibition of human MMP2 using Dnp-Pro-Cha-Gly-Cys(Me)-His-Ala-Lys(Nma)-NH2 substrate by fluorimetric analysis.
Target sequence in this assay (P08253 whole entry, the tested form may be a part): as the sequence (P08253 whole entry, the tested form may be a part) above
Assay [15] has as its target T2, Interstitial collagenase. Description: Inhibition of human MMP1 using Dnp-Pro-Cha-Gly-Cys(Me)-His-Ala-Lys(Nma)-NH2 substrate by fluorimetric analysis.
Assay [16] deals with T1, Matrix metalloproteinase-9. Briefly: Inhibition of MMP-9 (unknown origin) assessed as inhibition constant using Mca-Pro-Leu-Gly-Dpa-Ala-Arg-NH2 substrate preincubated for 1 hr followed by substrate addition and measured after 1 hr by fluorimetric analysis.
The target of assay [17] is T7, 72 kDa type IV collagenase. Briefly: Inhibition of MMP-2 (unknown origin) assessed as inhibition constant using Mca-Pro-Leu-Gly-Dpa-Ala-Arg-NH2 substrate preincubated for 1 hr followed by substrate addition and measured after 1 hr by fluorimetric analysis.
Target sequence in this assay (P08253 whole entry, the tested form may be a part): as above
For assay [18], the target named is T1, Matrix metalloproteinase-9. Description: Inhibition of MMP-9 (unknown origin) at 20 uM by fluorometric assay.
In assay [19] the target is T4, Stromelysin-1. Description: Inhibition of MMP-3 (unknown origin) at 20 uM by fluorometric assay.
Target sequence in this assay (P08254 100-477 limits assumed): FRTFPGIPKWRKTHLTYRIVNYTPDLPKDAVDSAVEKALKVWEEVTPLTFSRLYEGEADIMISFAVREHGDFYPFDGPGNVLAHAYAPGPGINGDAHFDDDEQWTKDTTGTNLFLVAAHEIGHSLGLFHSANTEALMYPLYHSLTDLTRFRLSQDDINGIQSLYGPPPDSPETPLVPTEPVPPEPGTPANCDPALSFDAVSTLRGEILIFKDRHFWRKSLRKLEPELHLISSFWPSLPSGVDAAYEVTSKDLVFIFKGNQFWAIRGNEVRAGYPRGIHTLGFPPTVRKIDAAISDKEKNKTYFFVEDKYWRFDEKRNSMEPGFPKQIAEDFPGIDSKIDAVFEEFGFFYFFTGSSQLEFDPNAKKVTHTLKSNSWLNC
Assay [20] deals with Matrix metalloproteinase-14 (Homo sapiens) (UniProt P50281). Description: Inhibition of MMP-14 (unknown origin) at 20 uM by fluorometric assay.
The target in assay [21] is Macrophage metalloelastase (Homo sapiens) (UniProt P39900). Description: Inhibition of MMP-12 (unknown origin) at 20 uM by fluorometric assay.
Macrophage metalloelastase (Homo sapiens), sequence (P39900 106-470 limits assumed): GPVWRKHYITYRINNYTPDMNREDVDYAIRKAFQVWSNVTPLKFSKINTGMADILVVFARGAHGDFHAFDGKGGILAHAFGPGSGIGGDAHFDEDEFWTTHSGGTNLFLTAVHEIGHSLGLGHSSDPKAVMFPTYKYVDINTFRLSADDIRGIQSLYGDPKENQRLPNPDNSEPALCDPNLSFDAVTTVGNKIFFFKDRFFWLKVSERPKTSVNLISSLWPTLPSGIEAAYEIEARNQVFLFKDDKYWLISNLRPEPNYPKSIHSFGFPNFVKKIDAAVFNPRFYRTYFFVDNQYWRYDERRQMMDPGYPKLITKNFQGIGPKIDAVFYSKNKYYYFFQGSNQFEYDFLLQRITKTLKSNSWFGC
For assay [22], the target named is T8, Matrilysin (Homo sapiens) (UniProt P09237).
T8 sequence (whole entry): T3 sequence (P09237 whole entry)
Description: Inhibition of MMP-7 (unknown origin) at 20 uM by fluorometric assay.

For assay [23], the target named is T6, Neutrophil collagenase. Briefly: Inhibition of MMP-8 (unknown origin) at 20 uM by fluorometric assay.
Target sequence in this assay (P22894 101-467 limits assumed): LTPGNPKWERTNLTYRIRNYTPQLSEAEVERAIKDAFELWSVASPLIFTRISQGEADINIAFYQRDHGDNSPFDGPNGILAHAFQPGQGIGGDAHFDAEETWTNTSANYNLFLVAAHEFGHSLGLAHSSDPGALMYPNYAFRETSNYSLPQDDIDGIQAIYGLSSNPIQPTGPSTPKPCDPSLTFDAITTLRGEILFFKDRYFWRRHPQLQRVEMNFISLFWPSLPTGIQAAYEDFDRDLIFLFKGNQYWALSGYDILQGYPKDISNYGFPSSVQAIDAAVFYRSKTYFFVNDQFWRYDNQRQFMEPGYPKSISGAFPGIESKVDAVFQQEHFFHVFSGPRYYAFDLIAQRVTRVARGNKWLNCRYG
For assay [24], the target named is T7, 72 kDa type IV collagenase. Description: Inhibition of MMP-2 (unknown origin) at 20 uM by fluorometric assay.
Target sequence in this assay (P08253 110-660 limits assumed): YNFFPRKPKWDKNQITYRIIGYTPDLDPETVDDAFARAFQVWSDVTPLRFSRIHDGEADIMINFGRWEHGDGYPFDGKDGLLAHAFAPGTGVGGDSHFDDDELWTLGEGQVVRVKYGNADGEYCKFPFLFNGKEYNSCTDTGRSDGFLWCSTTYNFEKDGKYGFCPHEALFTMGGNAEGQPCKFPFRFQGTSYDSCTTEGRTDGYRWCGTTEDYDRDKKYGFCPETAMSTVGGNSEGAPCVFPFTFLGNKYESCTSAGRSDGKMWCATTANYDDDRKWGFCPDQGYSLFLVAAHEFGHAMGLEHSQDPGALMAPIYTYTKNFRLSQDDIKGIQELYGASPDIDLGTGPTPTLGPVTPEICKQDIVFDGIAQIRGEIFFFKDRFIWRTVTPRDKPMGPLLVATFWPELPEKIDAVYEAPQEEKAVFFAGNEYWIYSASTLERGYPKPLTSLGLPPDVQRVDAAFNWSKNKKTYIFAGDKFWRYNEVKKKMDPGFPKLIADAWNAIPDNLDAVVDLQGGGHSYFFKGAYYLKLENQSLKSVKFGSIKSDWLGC
In assay [25] the target is T7, 72 kDa type IV collagenase. Briefly: Inhibition of human MMP2 incubated for 1 hrs followed by chromogenic substrate addition and measured after 30 mins by microplate photometer analysis.
Target sequence in this assay (P08253 whole entry, the tested form may be a part): as the sequence (P08253 whole entry, the tested form may be a part) above
The target in assay [26] is T1, Matrix metalloproteinase-9. Description: Inhibition of human MMP9 incubated for 1 hrs followed by chromogenic substrate addition and measured after 30 mins by microplate photometer analysis.

T1 sequence (P14780 whole entry): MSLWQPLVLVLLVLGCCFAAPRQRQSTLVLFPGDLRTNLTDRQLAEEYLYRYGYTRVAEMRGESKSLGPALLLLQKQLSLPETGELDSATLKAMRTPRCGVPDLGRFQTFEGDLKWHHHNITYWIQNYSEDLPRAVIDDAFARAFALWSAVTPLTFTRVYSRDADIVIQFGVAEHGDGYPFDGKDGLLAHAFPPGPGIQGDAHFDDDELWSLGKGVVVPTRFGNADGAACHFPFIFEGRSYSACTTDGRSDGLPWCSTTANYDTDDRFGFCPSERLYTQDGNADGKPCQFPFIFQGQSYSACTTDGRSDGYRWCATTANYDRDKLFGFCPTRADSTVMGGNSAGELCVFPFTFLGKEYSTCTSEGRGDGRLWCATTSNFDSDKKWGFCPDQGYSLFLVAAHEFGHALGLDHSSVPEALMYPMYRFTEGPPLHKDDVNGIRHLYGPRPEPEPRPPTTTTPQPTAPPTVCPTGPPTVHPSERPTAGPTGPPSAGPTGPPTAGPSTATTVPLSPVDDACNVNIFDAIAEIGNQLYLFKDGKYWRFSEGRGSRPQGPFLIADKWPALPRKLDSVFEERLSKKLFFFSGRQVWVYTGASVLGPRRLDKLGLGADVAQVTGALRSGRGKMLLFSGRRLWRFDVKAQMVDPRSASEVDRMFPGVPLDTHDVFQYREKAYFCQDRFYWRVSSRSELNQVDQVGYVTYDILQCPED
Disintegrin and metalloproteinase domain-containing protein 17, sequence (P78536 whole entry, the tested form may be a part): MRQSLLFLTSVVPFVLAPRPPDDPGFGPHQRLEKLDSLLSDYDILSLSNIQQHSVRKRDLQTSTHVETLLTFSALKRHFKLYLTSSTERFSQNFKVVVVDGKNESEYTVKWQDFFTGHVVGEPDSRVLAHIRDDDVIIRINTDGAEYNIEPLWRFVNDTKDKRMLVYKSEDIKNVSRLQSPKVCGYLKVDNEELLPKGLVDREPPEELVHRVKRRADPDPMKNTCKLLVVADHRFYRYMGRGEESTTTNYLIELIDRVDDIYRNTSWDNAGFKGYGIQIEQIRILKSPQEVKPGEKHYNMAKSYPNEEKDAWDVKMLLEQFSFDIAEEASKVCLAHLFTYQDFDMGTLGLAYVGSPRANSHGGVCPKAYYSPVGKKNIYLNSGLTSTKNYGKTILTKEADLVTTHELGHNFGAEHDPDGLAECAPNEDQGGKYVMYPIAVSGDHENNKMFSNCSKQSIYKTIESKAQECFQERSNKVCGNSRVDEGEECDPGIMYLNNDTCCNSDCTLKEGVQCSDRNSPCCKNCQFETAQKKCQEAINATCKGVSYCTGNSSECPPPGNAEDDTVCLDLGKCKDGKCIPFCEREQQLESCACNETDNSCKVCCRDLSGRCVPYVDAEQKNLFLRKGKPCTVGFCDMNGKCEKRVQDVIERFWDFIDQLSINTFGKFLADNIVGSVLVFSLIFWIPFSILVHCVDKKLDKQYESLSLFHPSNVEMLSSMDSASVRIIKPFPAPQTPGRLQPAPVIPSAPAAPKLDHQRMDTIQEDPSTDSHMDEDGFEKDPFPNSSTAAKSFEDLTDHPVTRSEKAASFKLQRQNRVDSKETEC

Consider `CNC(=O)[C@H](Cc1ccccc1)NC(=O)[C@H](CC(C)C)[C@H](CSc1cccs1)C(=O)NO` [BATIMASTAT], for which the IC50 (as a rule, the concentration needed to halve the response being measured) in [1] is 0.001 µM.

For `COc1ccc(S(=O)(=O)N2CCN(c3cccnc3)CC2C(=O)NO)cc1` (configuration not stated), the half-maximal inhibitory concentration (IC50) in [2] came out at 0.032 µM; at Interstitial collagenase [3] it was 0.944 µM; at Matrilysin, 27.7 µM; at Stromelysin-1 [4], 0.184 µM; on Collagenase 3 [5], 0.057 µM.

Consider `COc1ccc(S(=O)(=O)N(Cc2ccccn2)c2c(C)cc(-c3cccc(C(F)(F)F)c3)cc2C(=O)NO)cc1`, for which the results for the IC50 (in assay [1]; on Collagenase 3 [6]) were 0.001 µM and 0.002 µM, respectively.

Regarding `COc1ccc(S(=O)(=O)N2CCCC(C)(C)CC2C(=O)NO)cc1` (configuration not stated), the IC50 stood at 0.0005 µM in assay [2]; 0.0019 µM at Neutrophil collagenase [7]; 0.0024 µM at Interstitial collagenase [3]; 0.0014 µM in assay [8]; 0.018 µM at Matrilysin; 0.0033 µM at Stromelysin-1 [4].

Take `COc1ccc(S(=O)(=O)N(Cc2ccccc2)c2c(C(=O)NO)ccc3c(C(C)(C)C)cccc23)cc1`: the IC50 in assay [1] was determined as 0.009 µM; in assay [9], 0.401 µM; against Collagenase 3 [6] it was 0.016 µM; on Interstitial collagenase [10] it was 3.1 µM.

Regarding `COc1ccc(S(=O)(=O)N2CC(C)(C)C(CCSCc3ccccc3)C2C(=O)NO)cc1` (configuration not stated), the IC50 against Stromelysin-1 [11] stood at 0.0067 µM; in [12], 0.0009 µM; on Collagenase 3 [13], 0.0055 µM; in assay [14], 0.00164 µM; on Interstitial collagenase [15], 0.198 µM.

`COc1ccc(S(=O)(=O)N(c2c(C)cc(-c3cccc(C(F)(F)F)c3)cc2C(=O)NO)N(C)C)cc1`: the half-inhibitory concentration (IC50) in [1] was 0.002 µM; in [9], 0.633 µM; at Collagenase 3 [6] it was 0.039 µM; against Interstitial collagenase [10] it was 0.074 µM.

Consider `COc1ccc(S(=O)(=O)N(C)c2c(C)cc(Cc3ccc(CN(C)C)cc3)cc2C(=O)NO)cc1`, for which the IC50 came out at 0.003 µM in [1], 0.243 µM in assay [9], 0.011 µM against Collagenase 3 [6] and 0.213 µM at Interstitial collagenase [10].

For `CCCCCCCCCC[C@@H](CC(=O)NO)C(=O)N[C@H](C(=O)NC)c1ccccc1`, the IC50 in assay [16] turned out to be 0.0002 µM; in assay [17] it was 0.0016 µM.

Take `FC(F)(F)c1ccc(N2CC2Cn2cc(CCCCCCc3cn(CC4CN4c4ccc(C(F)(F)F)cc4)nn3)nn2)cc1` (configuration not stated): the inhibition (usually the percentage by which the read-out fell short of the control) in assay [18] turned out to be 29.6%; at Stromelysin-1 [19], 27.1%; in assay [20], 22.3%; in assay [21] it was 26%; in assay [22] it was 27.5%; on Neutrophil collagenase [23] it was 34.9%. Moreover, the inhibition in assay [24] amounted to 80.5%.

On to `O=C(O)CC[C@@H](NC(=O)Cc1ccc(Br)cc1)C(=O)NCc1ccc([N+](=O)[O-])cc1`, for which the figures for the concentration for half-maximal inhibition (IC50) in [25] and in [26] were 6.4 µM and 4.83 µM, respectively.
